# In patent publication US9145372B2, “Pyridazine derivatives, compositions and methods for treating cognitive impairment” (AGENEBIO, INC., priority 2010, dated 2015):
# “Also recorded” adds a separate entry of the source.
# Columns and labels:
# aged-impaired (AI) rats [1] = experiment: Morris water maze behavioral task after ICV infusion; assay type: in vivo, rat; conditions: 100 μg ICV
# Protocol: The effects of 6,6 dimethyl-3-(3-hydroxypropyl)thio-1-(thiazol-2-yl)-6,7-dihydro-2-benzothiophen-4(5H)-one on the in vivo spatial memory retention of aged-impaired (AI) rats were assessed in a Morris water maze behavioral task. A water maze is a pool surrounded with a novel set of patterns relative to the maze.
# Cognitively impaired aged rats were implanted unilaterally with a cannula into the lateral ventricle. Stereotaxic coordinates were 1.0 mm posterior to bregma, 1.5 mm lateral to midline, and 3.5 mm ventral to the skull surface. After about a week of recovery, the rats were pre-trained in a water maze for 2 days (6 trials per day) to locate a submerged escape platform hidden underneath the surface of the pool, in which the escape platform location varied from day to day. No intracerebroventricular (ICV) infusion was given during pre-training
# After pre-training, rats received ICV infusion of either 100 μg 6,6 dimethyl-3-(3-hydroxypropyl)thio-1-(thiazol-2-yl)-6,7-dihydro-2-benzothiophen-4(5H)-one (n=6) in 5 μl DMSO or vehicle DMSO (n=5) 40 min prior to water maze training and testing. Training consisted of 8 trials per day for 2 days where the hidden escape platform remained in the same location. Rats were given 60 seconds to locate the platform with a 60 seconds inter-trial interval. The rats were given a probe test (120 seconds) 24 hr after the end of training where the escape platform was removed. During the training, there were 4 blocks, where each block had 4 training trials.
# Rats treated with vehicle and 6,6 dimethyl-3-(3-hydroxypropyl)thio-1-(thiazol-2-yl)-6,7-dihydro-2-benzothiophen-4(5H)-one found the escape platform about the same time at the beginning of training (block 1). In this block of training, rats treated with vehicle and 6,6 dimethyl-3-(3-hydroxypropyl)thio-1-(thiazol-2-yl)-6,7-dihydro-2-benzothiophen-4(5H)-one both spent about 24 seconds to find the escape platform. However, rats treated with 6,6 dimethyl-3-(3-hydroxypropyl)thio-1-(thiazol-2-yl)-6,7-dihydro-2-benzothiophen-4(5H)-one were able to find the platform more proficiently (i.e., quicker) at the end of training (block 4) than those treated with vehicle alone. In block 4, rats treated with 6,6 dimethyl-3-(3-hydroxypropyl)thio-1-(thiazol-2-yl)-6,7-dihydro-2-benzothiophen-4(5H)-one spent about 9.6 seconds to find the escape platform, while rats treated with vehicle spent about 19.69 seconds.
# During a test trial 24 hr after training, the escape platform was removed. The search/swim pattern of the rats was used to measure whether the rats remember where the escape platform was located during pre-trial training in order to test for the long-term memory of the rats. […]
# GABAA α5 receptor = GABAA α5 receptor (Rattus norvegicus, UniProt P18508+P19969); experiment: GABAA α5 receptor occupancy in vivo with Ro 15-4513 tracer (hippocampus vs cerebellum); conditions: i.v.
# Excerpt: Adult male Long Evans rats (265-295 g, Charles River, Portage, Mich., n=4/group) were used for GABAA α5 receptor occupancy studies. Rats were individually housed in ventilated stainless-steel racks on a 12:12 light/dark cycle. Food and water were available ad libitum.
# Ro 15-4513 was used as a receptor occupancy (RO) tracer for GABAA α5 receptor sites in the hippocampus and cerebellum. Ro 15-4513 was chosen as the tracer based on its selectivity for GABAA α5 receptors relative to other alpha subunit containing GABAA receptors and because it has been successfully used for GABAA α5 RO studies in animals and humans (see, e.g., Lingford-Hughes et al., J. Cereb. Blood Flow Metab. 22:878-89 (2002); Pym et al, Br. J. Pharmacol. 146: 817-825 (2005); and Maeda et al., Synapse 47: 200-208 (2003)). Ro 15-4513 (1 μg/kg), was dissolved in 25% hydroxyl-propyl beta-cyclodextrin and administered i.v. 20′ prior to the RO evaluations. Methyl 3,5-diphenylpyridazine-4-carboxylate (0.1-10 mg/kg) was synthesized by Nox Pharmaceuticals (India) and was dissolved in 25% hydroxyl-propyl beta-cyclodextrin and administered i.v. 15′ prior to tracer injection.
# The rats were sacrificed by cervical dislocation 20′ post tracer injection. The whole brain was rapidly removed, and lightly rinsed with sterile water. Trunk blood was collected in EDTA coated eppendorf tubes and stored on wet ice until study completion. Hippocampus and cerebellum were dissected and stored in 1.5 ml eppendorf tubes, and placed on wet ice until tissue extraction. In a drug naïve rat, six cortical brain tissues samples were collected for use in generating blank and standard curve samples.
# Acetonitrile containing 0.1% formic acid was added to each sample at a volume of four times the weight of the tissue sample. For the standard curve (0.1-30 ng/g) samples, a calculated volume of standard reduced the volume of acetonitrile. The sample was homogenized (FastPrep-24, Lysing Matrix D; 5.5 m/s, for 60 seconds or 7-8 watts power using sonic probe dismembrator; Fisher Scientific) and centrifuged for 16-minutes at 14,000 rpm. The (100 μl) supernatant solution was diluted by 300 μl of sterile water (pH 6.5). This solution was then mixed thoroughly and analyzed via LC/MS/MS for […] (tracer) and methyl 3,5-diphenylpyridazine-4-carboxylate.
# Receptor occupancy was determined by the ratio method which compared occupancy in the hippocampus (a region of high GABAA α5 receptor density) with occupancy in the cerebellum (a region with low GABAA α5 receptor density) and additionally by a high dose of the GABAA α5 negative allosteric modulator L-655,708 (10 mg/kg, i.v.) to define full occupancy.
# aged-impaired (AI) rats [2] = experiment: Radial Arm Maze (RAM) behavioral task, spatial memory retention; assay type: in vivo, rat; conditions: four-hour delay RAM
# Protocol: The effects of methyl 3,5-diphenylpyridazine-4-carboxylate on the in vivo spatial memory retention of aged-impaired (AI) rats were assessed in a Radial Arm Maze (RAM) behavioral task using vehicle control and four different dosage levels of methyl 3,5-diphenylpyridazine-4-carboxylate (0.1 mg/kg, 0.3 mg/kg, 1 mg/kg and 3 mg/kg, ip). RAM behavioral tasks were performed on eight AI rats. All five treatment conditions (vehicle and four dosage levels) were tested on all eight rats.
# The RAM apparatus used consisted of eight equidistantly-spaced arms. An elevated maze arm (7 cm width×75 cm length) projected from each facet of an octagonal center platform (30 cm diameter, 51.5 cm height). Clear side walls on the arms were 10 cm high and were angled at 65° to form a trough. A food well (4 cm diameter, 2 cm deep) was located at the distal end of each arm. Froot Loops™ (Kellogg Company) were used as rewards. Blocks constructed of Plexiglas™ (30 cm height×12 cm width) could be positioned to prevent entry to any arm. Numerous extra maze cues surrounding the apparatus were also provided.
# The AI rats were initially subjected to a pre-training test (Chappell et al. Neuropharmacology 37: 481-487, 1998). The pre-training test consisted of a habituation phase (4 days), a training phase on the standard win-shift task (18 days) and another training phase (14 days) in which a brief delay was imposed between presentation of a subset of arms designated by the experimenter (e.g., 5 arms available and 3 arms blocked) and completion of the eight-arm win-shift task (i.e., with all eight arms available).
# In the habituation phase, rats were familiarized to the maze for an 8-minute session on four consecutive days. In each of these sessions, food rewards were scattered on the RAM, initially on the center platform and arms and then progressively confined to the arms. After this habituation phase, a standard training protocol was used, in which a food pellet was located at the end of each arm. Rats received one trial each day for 18 days. Each daily trial terminated when all eight food pellets had been obtained or when either 16 choices were made or 15 minutes had elapsed. After completion of this training phase, a second training phase was carried out in which the memory demand was increased by imposing a brief delay during the trial. At the beginning of each trial, three arms of the eight-arm maze were blocked. Rats were allowed to obtain food on the five arms to which access was permitted during this initial “information phase” of the trial. Rats were then removed from the maze for 60 seconds, during which time the barriers on the maze were removed, thus allowing access to all eight arms. […]
# [3] = probe test 24 hr after training
# Chain of GABAA α5 receptor (P19969 32-464 limits assumed): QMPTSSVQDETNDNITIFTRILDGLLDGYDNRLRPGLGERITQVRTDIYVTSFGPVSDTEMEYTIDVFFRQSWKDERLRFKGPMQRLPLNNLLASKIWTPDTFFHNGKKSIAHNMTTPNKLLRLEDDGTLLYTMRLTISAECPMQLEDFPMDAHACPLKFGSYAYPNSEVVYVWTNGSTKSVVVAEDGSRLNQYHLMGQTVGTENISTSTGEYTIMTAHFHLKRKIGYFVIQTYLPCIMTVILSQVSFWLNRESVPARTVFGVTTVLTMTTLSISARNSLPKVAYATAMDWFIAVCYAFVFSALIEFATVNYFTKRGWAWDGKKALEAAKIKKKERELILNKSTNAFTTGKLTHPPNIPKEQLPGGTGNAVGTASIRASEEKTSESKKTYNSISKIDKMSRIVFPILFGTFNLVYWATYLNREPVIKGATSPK
# Chain of GABAA α5 receptor (P18508 39-466): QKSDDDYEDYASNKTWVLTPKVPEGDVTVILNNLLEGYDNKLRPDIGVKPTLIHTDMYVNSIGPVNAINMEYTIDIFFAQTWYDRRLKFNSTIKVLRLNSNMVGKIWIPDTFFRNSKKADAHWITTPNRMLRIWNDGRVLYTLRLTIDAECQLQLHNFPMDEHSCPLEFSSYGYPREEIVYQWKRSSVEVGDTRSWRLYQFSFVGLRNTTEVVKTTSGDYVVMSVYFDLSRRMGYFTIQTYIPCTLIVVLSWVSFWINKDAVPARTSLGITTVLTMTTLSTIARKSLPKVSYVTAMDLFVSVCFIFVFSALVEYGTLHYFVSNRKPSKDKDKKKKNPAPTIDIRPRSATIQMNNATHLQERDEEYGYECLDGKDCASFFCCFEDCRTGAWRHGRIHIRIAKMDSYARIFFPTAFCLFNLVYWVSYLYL
# Chain of GABAA α5 receptor (P63079 26-473 partner): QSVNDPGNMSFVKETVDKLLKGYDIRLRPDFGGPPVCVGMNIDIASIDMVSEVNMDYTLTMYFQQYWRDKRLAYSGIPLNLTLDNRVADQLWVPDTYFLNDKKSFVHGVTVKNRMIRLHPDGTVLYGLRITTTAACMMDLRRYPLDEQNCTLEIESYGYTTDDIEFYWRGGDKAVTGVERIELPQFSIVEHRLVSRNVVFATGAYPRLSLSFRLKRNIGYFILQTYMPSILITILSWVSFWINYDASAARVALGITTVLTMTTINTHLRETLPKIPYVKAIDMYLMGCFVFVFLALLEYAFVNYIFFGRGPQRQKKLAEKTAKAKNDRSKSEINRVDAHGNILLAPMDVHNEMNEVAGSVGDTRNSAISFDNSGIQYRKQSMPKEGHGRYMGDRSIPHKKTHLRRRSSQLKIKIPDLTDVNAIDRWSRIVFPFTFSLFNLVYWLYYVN
SMILES,"time to find the escape platform (escape latency), block 1 (aged-impaired (AI) rats [1]; beginning of training)","time to find the escape platform (escape latency), block 4 (aged-impaired (AI) rats [1]; end of training)",number of crossings of target annulus compared to opposite annulus (aged-impaired (AI) rats [1]; [3]),time in target annulus compared to opposite annulus (aged-impaired (AI) rats [1]; [3]),Ro 15-4513 binding in hippocampus (GABAA α5 receptor; 0.01-10 mg/kg),cerebellum levels (binding) of Ro 15-4513 (GABAA α5 receptor; 0.01-10 mg/kg),GABAA α5 receptor occupancy (GABAA α5 receptor; 10 mg/kg) [%],memory performance relative to vehicle control (aged-impaired (AI) rats [2]; 3 mg/kg),memory performance relative to vehicle control (aged-impaired (AI) rats [2]; 10 mg/kg)
"CC1(C)CC(=O)c2c(SCCCO)sc(-c3nccs3)c2C1 [6,6 dimethyl-3-(3-hydroxypropyl)thio-1-(thiazol-2-yl)-6,7-dihydro-2-benzothiophen-4(5H)-one]",about 24 seconds,about 9.6 seconds,more often,significantly more time in the target annulus,,,,,
"CCOC(=O)c1ncn2c1Cn1c(C)nnc1-c1cc(OC)ccc1-2 [ethyl 3-methoxy-7-methyl-9H-benzo[f]imidazo[1,5-a][1,2,4]triazolo[4,3-d][1,4]diazepine-10-carboxylate]",,,,,blocked; also recorded: reduced,did not affect; also recorded: without affecting,> 90,significantly improved memory performance,significantly improved memory performance
